The structures appear in SMILES notation. Calls of active or inactive are those of the source. The calls are words filed in the database; no cut-off is given here.

Assay [1] deals with T1, Orexin/Hypocretin receptor type 1 (Homo sapiens) (UniProt O43613).
T1 sequence (whole entry): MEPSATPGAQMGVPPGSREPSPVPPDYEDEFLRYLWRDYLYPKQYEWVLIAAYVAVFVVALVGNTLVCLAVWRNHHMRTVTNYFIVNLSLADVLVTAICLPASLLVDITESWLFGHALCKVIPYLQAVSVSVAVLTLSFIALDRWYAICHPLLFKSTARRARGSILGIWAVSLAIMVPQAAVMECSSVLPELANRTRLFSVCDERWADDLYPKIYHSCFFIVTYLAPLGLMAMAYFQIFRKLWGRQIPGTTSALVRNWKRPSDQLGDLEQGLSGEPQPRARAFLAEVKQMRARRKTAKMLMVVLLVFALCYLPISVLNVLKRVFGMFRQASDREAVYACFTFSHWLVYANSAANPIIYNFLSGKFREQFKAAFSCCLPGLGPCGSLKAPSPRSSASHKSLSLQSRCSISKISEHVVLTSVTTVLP
Description: Agonist activity at OX1 receptor (unknown origin) expressed in RD-HGA16 cells assessed as calcium mobilization at 10 uM by fluorescence assay. The assay is classed as functional, cell-based.

For assay [2], the target named is T1, Orexin/Hypocretin receptor type 1 (Homo sapiens). Description: Antagonist activity at OX1 receptor (unknown origin) expressed in RD-HGA16 cells assessed as inhibition orexin A-induced calcium mobilization by fluorescence assay. The assay is classed as functional, cell-based.
For a further assay, the species on record is Homo sapiens. Description: Selectivity ratio of Ke for OX2 receptor (unknown origin) to Ke for OX1 receptor (unknown origin).
In assay [3] the target is T2, Orexin receptor type 2 (Homo sapiens) (UniProt O43614).
T2 sequence (whole entry): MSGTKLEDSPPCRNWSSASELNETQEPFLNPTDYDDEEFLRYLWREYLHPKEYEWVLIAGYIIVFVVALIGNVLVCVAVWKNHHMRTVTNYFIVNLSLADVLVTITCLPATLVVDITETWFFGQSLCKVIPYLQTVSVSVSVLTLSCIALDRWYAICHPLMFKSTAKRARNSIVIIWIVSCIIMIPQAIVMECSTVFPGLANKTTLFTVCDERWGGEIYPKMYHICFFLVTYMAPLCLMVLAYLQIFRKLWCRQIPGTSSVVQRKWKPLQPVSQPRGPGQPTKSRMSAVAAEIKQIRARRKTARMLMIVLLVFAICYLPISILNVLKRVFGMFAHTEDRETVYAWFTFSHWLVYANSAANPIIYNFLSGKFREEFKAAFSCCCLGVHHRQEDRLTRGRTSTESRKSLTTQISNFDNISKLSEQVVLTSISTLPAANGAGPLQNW
Description: Antagonist activity at OX2 receptor (unknown origin) expressed in RD-HGA16 cells assessed as inhibition orexin A-induced calcium mobilization at 10 uM by fluorescence assay. The assay is classed as functional, cell-based.

`COc1ccc(CC2c3cc(OC)c(OC)cc3CCN2CC(=O)NCc2ccccc2)cc1OC` (stereo unspecified): the outcome in assay [1] was inactive. Moreover, the Ke(app) in assay [2] was determined as 199 nM.
Regarding `COc1ccc(CC2c3cc(OCCCCOc4ccccc4)c(OC)cc3CCN2CC(=O)NCc2ccccc2)cc1OC` (stereo unspecified), the result in assay [1] was inactive. Besides, the Ke(app) in assay [2] was 43.5 nM.
Turning to `COc1ccc(CC2c3cc(OS(=O)(=O)c4ccccc4)c(OC)cc3CCN2CC(=O)NCc2ccccc2)cc1OC` (stereo unspecified), the Ratio in the assay listed under Homo sapiens amounted to 95.1. In addition, in assay [1], the outcome was inactive. Besides, the Ke(app) in assay [2] amounted to 30.5 nM.
With `CCOc1cc2c(cc1OC)CCN(CC(=O)NCc1ccccn1)C2Cc1ccc(OC)c(OC)c1` (stereo unspecified), the result in assay [1] was inactive. For the same compound, in assay [2], the Ke(app) was determined as 87.4 nM.
For the compound `COc1ccc(CC2c3cc(OC)c(OC)cc3CCN2CC(=O)N[C@@H](C)c2ccccc2)cc1OC` (single isomer, unassigned; diastereomer 1), the Ke(app) in assay [2] was > 10000 nM. Moreover, in assay [3], the inhibition was < 30%.
As for `CCCCCCOc1cc2c(cc1OC)CCN(CC(=O)NCc1ccccc1)C2Cc1ccc(OC)c(OC)c1` (stereo unspecified), in assay [1], the result was inactive. The Ke(app) in assay [2] stood at 315 nM.
On to `CCCOc1cc2c(cc1OC)CCN(CC(=O)NCc1ccccc1)C2Cc1ccc(OC)c(OC)c1` (stereo unspecified), for which the result in assay [1] was inactive. For the same compound, the Ke(app) in assay [2] came out at 17.3 nM.
Consider `COc1ccc(CC2c3cc(OCC(F)(F)F)c(OC)cc3CCN2CC(=O)NCc2ccccn2)cc1OC` (stereo unspecified), for which the outcome in assay [1] was inactive. The Ke(app) in assay [2] is 22.5 nM.
With `COc1ccc(CC2c3cc(OC)c(OC)cc3CCN2CC(=O)NCc2ccc(NC(C)=O)cc2)cc1OC` (stereo unspecified), the Ke(app) in assay [2] was > 10000 nM. Further, the inhibition in assay [3] was < 30%.
`COc1ccc(CC2c3cc(OC)c(OC)cc3CCN2CC(=O)NC2CC(C)Nc3ccccc32)cc1OC` (stereo unspecified): in assay [2], the Ke(app) was 7170 nM. Further, the inhibition in assay [3] is < 30%.
The corresponding values for `COc1ccc(CC2c3cc(OC)c(OC)cc3CCN2CC(=O)NCCCN(C)C)cc1OC` (stereo unspecified) are > 10000 nM and < 30%.
The corresponding values for `COc1ccc(CC2c3cc(OCC4CCCCC4)c(OC)cc3CCN2CC(=O)NCc2ccccc2)cc1OC` (stereo unspecified) are > 10000 nM and < 30%.
On the same counts, the results for `COC(=O)CNC(=O)CN1CCc2cc(OC)c(OC)cc2C1Cc1ccc(OC)c(OC)c1` (stereo unspecified) are 6630 nM and < 30%.
For the compound `COc1ccc(CC2c3cc(OC)c(OC)cc3CCN2CC(=O)Nc2cccc(-c3ccccc3)c2)cc1OC` (stereo unspecified), the Ke(app) in assay [2] was 8980 nM. Besides, the inhibition in assay [3] is < 30%.
The corresponding values for `CNC(=O)CNC(=O)CN1CCc2cc(OC)c(OC)cc2C1Cc1ccc(OC)c(OC)c1` (stereo unspecified) are 7640 nM and < 30%.
Take `COc1ccc(CC2c3cc(OC)c(OC)cc3CCN2CC(=O)NCC(N)=O)cc1OC` (stereo unspecified): in assay [2], the Ke(app) is > 10000 nM. The inhibition in assay [3] is < 30%.
In the case of `COc1ccc(CC2c3cc(OC)c(OC)cc3CCN2CC(=O)NCc2cccnc2)cc1OC` (stereo unspecified), the outcome in assay [1] was inactive. For the same compound, the Ke(app) in assay [2] worked out at 152 nM.
Take `CCOc1cc2c(cc1OC)CCN(CC(=O)NCc1ccccc1)C2Cc1ccc(OC)c(OC)c1` (stereo unspecified): the outcome in assay [1] was inactive. Also, the Ke(app) in assay [2] is 30 nM.
Consider `COc1ccc(CC2c3cc(OC)c(OC)cc3CCN2CC(=O)N2CCC(c3ccccc3)CC2)cc1OC` (stereo unspecified), for which, in assay [2], the Ke(app) is > 10000 nM. Also, in assay [3], the inhibition is < 30%.
In the case of `COc1ccc(CC2c3cc(OC)c(OC)cc3CCN2CC(=O)N2CCc3ccccc3C2)cc1OC` (stereo unspecified), the Ratio in the assay listed under Homo sapiens was found to be 3. The Ke(app) in assay [2] worked out at 3030 nM.
In the case of `CCCCCC(=O)Nc1ccc(CNC(=O)CN2CCc3cc(OC)c(OC)cc3C2Cc2ccc(OC)c(OC)c2)cc1` (stereo unspecified), in assay [2], the Ke(app) is > 10000 nM.
For `CCCC(=O)Oc1cc2c(cc1OC)CCN(CC(=O)NCc1ccccc1)C2Cc1ccc(OC)c(OC)c1` (stereo unspecified), the outcome in assay [1] was inactive. Besides, the Ke(app) in assay [2] was 78.5 nM.
Take `COc1ccc(CC2c3cc(OC)c(OC)cc3CCN2CC(=O)NCc2ccccn2)cc1OC` (stereo unspecified): the outcome in assay [1] was inactive. Moreover, the Ke(app) in assay [2] was found to be 261 nM.
`COc1ccc(CC2c3cc(OCCN4CCCCC4)c(OC)cc3CCN2CC(=O)NCc2ccccc2)cc1OC` (stereo unspecified): in assay [2], the Ke(app) came to 8040 nM. Besides, the inhibition in assay [3] was < 30%.
On to `COc1ccc(CC2c3cc(OC)c(OC)cc3CCN2CC(=O)N(C)Cc2ccccc2)cc1OC` (stereo unspecified), for which the Ke(app) in assay [2] was found to be 2090 nM.
With `COc1ccc(CC2c3cc(OC)c(OC)cc3CCN2CC(=O)NCc2ccc(N(C)C)cc2)cc1OC` (stereo unspecified), the Ke(app) in assay [2] was found to be 3230 nM.
For `COc1ccc(CC2c3cc(OC)c(OC)cc3CCN2CC(=O)NCc2ccncc2)cc1OC` (stereo unspecified), in assay [2], the Ke(app) was 1010 nM. In addition, the inhibition in assay [3] is < 30%.
With `COc1ccc(CC2c3cc(OCc4ccccc4)c(OC)cc3CCN2CC(=O)NCc2ccccc2)cc1OC` (stereo unspecified), the result in assay [1] was inactive. Further, the Ke(app) in assay [2] was 402 nM. The inhibition in assay [3] was < 30%.
On to `COc1ccc(CC2c3cc(OCCCCN(C)C)c(OC)cc3CCN2CC(=O)NCc2ccccc2)cc1OC` (stereo unspecified), for which the Ke(app) in assay [2] was 5740 nM. In addition, in assay [3], the inhibition was < 30%.
For the compound `COc1ccc(CC2c3cc(OC)c(OC)cc3CCN2CC(=O)Nc2cc(C)nc3ccccc23)cc1OC` (stereo unspecified), in assay [2], the Ke(app) is 4510 nM. Further, the inhibition in assay [3] was < 30%.
With `CCCOc1cc2c(cc1OC)CCN(CC(=O)NCc1cccnc1)C2Cc1ccc(OC)c(OC)c1` (stereo unspecified), the outcome in assay [1] was inactive. In addition, the Ke(app) in assay [2] came out at 41.9 nM.
On to `COc1ccc(CC2c3cc(OS(=O)(=O)c4ccc(C)cc4)c(OC)cc3CCN2CC(=O)NCc2ccccc2)cc1OC` (stereo unspecified), for which the result in assay [1] was inactive. In assay [2], the Ke(app) worked out at 118 nM. The inhibition in assay [3] was < 30%.
The corresponding values for `COc1ccc(CC2c3cc(OCc4ccccn4)c(OC)cc3CCN2CC(=O)NCc2ccccc2)cc1OC` (stereo unspecified) are “inactive”, 101 nM and < 30%.
Regarding `COc1ccc(CC2c3cc(OC)c(OC)cc3CCN2CC(=O)N2CCCC(c3ccccc3)C2)cc1OC` (stereo unspecified), the Ratio in the assay filed under Homo sapiens was determined as 2.6. The Ke(app) in assay [2] came to 3530 nM.
Turning to `COc1ccc(CC2c3cc(OCc4cccnc4)c(OC)cc3CCN2CC(=O)NCc2ccccc2)cc1OC` (stereo unspecified), the outcome in assay [1] was inactive. Further, the Ke(app) in assay [2] stood at 277 nM. In addition, the inhibition in assay [3] is < 30%.
In the case of `COc1ccc(CC2c3cc(OC)c(OC)cc3CCN2CC(=O)Nc2ccnc3c(F)cccc23)cc1OC` (stereo unspecified), the Ke(app) in assay [2] is 4220 nM. Moreover, in assay [3], the inhibition is < 30%.
Consider `COc1ccc(CC2c3cc(OC)c(OC)cc3CCN2CC(=O)Nc2ccc(-c3ccccc3)cc2)cc1OC` (stereo unspecified), for which, in assay [2], the Ke(app) was 2240 nM. Moreover, the inhibition in assay [3] is < 30%.
`COc1cc2c(cc1O)C(Cc1ccc(OC)c(OC)c1)N(CC(=O)NCc1ccccc1)CC2` (stereo unspecified): in the assay filed under Homo sapiens, the Ratio is 3.8. The Ke(app) in assay [2] worked out at 1530 nM.
For `COc1ccc(CC2c3cc(OCCN(C)C)c(OC)cc3CCN2CC(=O)NCc2ccccc2)cc1OC` (stereo unspecified), the Ke(app) in assay [2] turned out to be 4740 nM. In assay [3], the inhibition was < 30%.
The corresponding values for `COc1ccc(CC2c3cc(OC)c(OC)cc3CCN2CC(=O)N2CCN(c3ccccc3)CC2)cc1OC` (stereo unspecified) are > 10000 nM and < 30%.
As to `COc1ccc(CC2c3cc(OCC(F)(F)F)c(OC)cc3CCN2CC(=O)NCc2ccccc2)cc1OC` (stereo unspecified), in assay [1], the outcome was inactive. Further, the Ke(app) in assay [2] was 9.4 nM.
With `CCCOc1cc2c(cc1OC)CCN(CC(=O)NCc1ccccn1)C2Cc1ccc(OC)c(OC)c1` (stereo unspecified), the result in assay [1] was inactive. Besides, in assay [2], the Ke(app) was found to be 20.6 nM.
Turning to `COc1ccc(CC2c3cc(OC)c(OC)cc3CCN2CC(=O)Nc2cccc3ccccc23)cc1OC` (stereo unspecified), the result in assay [1] was inactive. Further, in assay [2], the Ke(app) worked out at 732 nM. Moreover, the inhibition in assay [3] is < 30%.
As for `COc1ccc(CC2c3cc(OC)c(OC)cc3CCN2CC(=O)NCCc2ccccc2)cc1OC` (stereo unspecified), in assay [2], the Ke(app) was 3250 nM. Moreover, the inhibition in assay [3] is < 30%.
Consider `CCCCCCNC(=O)Nc1ccc(CNC(=O)CN2CCc3cc(OC)c(OC)cc3C2Cc2ccc(OC)c(OC)c2)cc1` (stereo unspecified), for which the Ratio in the assay filed under Homo sapiens stood at 0.7. The Ke(app) in assay [2] stood at 3680 nM.
On to `COc1ccc(CC2c3cc(OS(=O)(=O)C(F)(F)F)c(OC)cc3CCN2CC(=O)NCc2ccccc2)cc1OC` (stereo unspecified), for which, in assay [1], the result was inactive. Besides, the Ke(app) in assay [2] is 10 nM.
On the same counts, the results for `CCOc1cc2c(cc1OC)CCN(CC(=O)NCc1cccnc1)C2Cc1ccc(OC)c(OC)c1` (stereo unspecified) are “inactive” and 15.7 nM.
Regarding `COc1ccc(CC2c3cc(OC)c(OC)cc3CCN2CC(=O)NCCCc2ccccc2)cc1OC` (stereo unspecified), the Ke(app) in assay [2] is 2370 nM. Moreover, in assay [3], the inhibition was < 30%.
With `COc1ccc(CC2c3cc(OC)c(OC)cc3CCN2CC(=O)OCc2ccccc2)cc1OC` (stereo unspecified), the Ke(app) in assay [2] is > 10000 nM. For the same compound, the inhibition in assay [3] is < 30%.

The values are drawn from ChEMBL document CHEMBL2417373, “Substituted tetrahydroisoquinolines as selective antagonists for the orexin 1 receptor” (J Med Chem, 2013).
